Data as given in ChEMBL document CHEMBL1759924, “Natural products-based insecticidal agents 9. Design, semisynthesis and insecticidal activity of 28-acyloxy derivatives of toosendanin against Mythimna separata Walker in vivo” (2011).
Activity calls are given as the source filed them. No cut-off for these calls is given here.

How the values were obtained:
[1] = system: Mythimna separata; assay: Insecticidal activity against Mythimna separata Walker assessed as mortality at 1 mg/mL by leaf dipping method; format: functional, organism-based; conditions: TDE = time-dependent effect
[2] = system: Mythimna separata; assay: Insecticidal activity against Mythimna separata Walker assessed as mortality rate at 1 mg/mL after 20 days by leaf dipping method; format: functional
[3] = system: Mythimna separata; assay: Insecticidal activity against Mythimna separata assessed as slim and wrinkled body during larval period upto 48 hrs; format: functional, organism-based
[4] = system: Mythimna separata; assay: Insecticidal activity against Mythimna separata Walker assessed as mortality rate at 1 mg/mL after 10 days by leaf dipping method; format: functional
[5] = system: Mythimna separata; assay: Insecticidal activity against Mythimna separata Walker assessed as mortality rate at 1 mg/mL after 35 days by leaf dipping method; format: functional
[6] = system: Mythimna separata; assay: Insecticidal activity against Mythimna separata larvae assessed as malformed pupae during pupation period at day 19; format: functional, organism-based
[7] = system: Mythimna separata; assay: Insecticidal activity against Mythimna separata assessed as malformed moths with imperfect wings at day 27; format: functional, organism-based

Row | SMILES | Activity [1] | Activity [2] [%] | Activity [3] | Activity [4] [%] | Activity [5] [%] | Activity [6] | Activity [7]
1 | CC(=O)O[C@H]1OC[C@@]23[C@H]4C(=O)[C@H](OC(C)=O)[C@@]5(C)C(c6ccoc6)C[C@H]6O[C@]65[C@]4(C)[C@H](O)C[C@H]2[C@]1(C)[C@H](OC(C)=O)C[C@@H]3O (single isomer, unassigned) | tde | 26.9 | Active | 24.1 | 50 | Active | 
2 | CCC(=O)O[C@H]1OC[C@@]23[C@H]4C(=O)[C@H](OC(C)=O)[C@@]5(C)C(c6ccoc6)C[C@H]6O[C@]65[C@]4(C)[C@H](O)C[C@H]2[C@]1(C)[C@H](OC(C)=O)C[C@@H]3O (single isomer, unassigned) | tde | 30.8 | Active | 24.1 | 53.9 |  | 
3 | CCCC(=O)O[C@H]1OC[C@@]23[C@H]4C(=O)[C@H](OC(C)=O)[C@@]5(C)C(c6ccoc6)C[C@H]6O[C@]65[C@]4(C)[C@H](O)C[C@H]2[C@]1(C)[C@H](OC(C)=O)C[C@@H]3O (single isomer, unassigned) | tde | 42.3 |  | 31 | 73.1 | Active | 
4 | CC(=O)O[C@@H]1C[C@H](O)[C@@]23CO[C@H](OC(=O)c4ccccc4)[C@]1(C)[C@@H]2C[C@@H](O)[C@]1(C)[C@@H]3C(=O)[C@H](OC(C)=O)[C@@]2(C)C(c3ccoc3)C[C@H]3O[C@@]312 (single isomer, unassigned) | tde | 23.1 |  | 20.7 | 46.2 |  | Active
5 | CC(=O)O[C@@H]1C[C@H](O)[C@@]23CO[C@H](OC(=O)c4ccc(Cl)cc4)[C@]1(C)[C@@H]2C[C@@H](O)[C@]1(C)[C@@H]3C(=O)[C@H](OC(C)=O)[C@@]2(C)C(c3ccoc3)C[C@H]3O[C@@]312 (single isomer, unassigned) | tde | 26.9 | Active | 20.7 | 50 | Active | 
6 | CC(=O)O[C@@H]1C[C@H](O)[C@@]23CO[C@H](OC(=O)c4cccc(Cl)c4)[C@]1(C)[C@@H]2C[C@@H](O)[C@]1(C)[C@@H]3C(=O)[C@H](OC(C)=O)[C@@]2(C)C(c3ccoc3)C[C@H]3O[C@@]312 (single isomer, unassigned) | tde | 34.6 |  | 27.6 | 46.2 |  | Active
7 | CC(=O)O[C@@H]1C[C@H](O)[C@@]23CO[C@H](OC(=O)c4ccccc4Cl)[C@]1(C)[C@@H]2C[C@@H](O)[C@]1(C)[C@@H]3C(=O)[C@H](OC(C)=O)[C@@]2(C)C(c3ccoc3)C[C@H]3O[C@@]312 (single isomer, unassigned) | tde | 23.1 | Active | 20.7 | 38.5 |  | Active
8 | COc1ccc(C(=O)O[C@H]2OC[C@@]34[C@H]5C(=O)[C@H](OC(C)=O)[C@@]6(C)C(c7ccoc7)C[C@H]7O[C@]76[C@]5(C)[C@H](O)C[C@H]3[C@]2(C)[C@H](OC(C)=O)C[C@@H]4O)cc1 (single isomer, unassigned) | tde | 26.9 |  | 20.7 | 42.3 |  | 
9 | CC(=O)O[C@@H]1C[C@H](O)[C@@]23CO[C@H](OC(=O)c4ccc([N+](=O)[O-])cc4)[C@]1(C)[C@@H]2C[C@@H](O)[C@]1(C)[C@@H]3C(=O)[C@H](OC(C)=O)[C@@]2(C)C(c3ccoc3)C[C@H]3O[C@@]312 (single isomer, unassigned) | tde | 26.9 |  | 24.2 | 42.3 |  | Active
10 | CC(=O)O[C@@H]1C[C@H](O)[C@@]23CO[C@H](OC(=O)/C=C/c4ccccc4)[C@]1(C)[C@@H]2C[C@@H](O)[C@]1(C)[C@@H]3C(=O)[C@H](OC(C)=O)[C@@]2(C)C(c3ccoc3)C[C@H]3O[C@@]312 (single isomer, unassigned) | tde | 38.5 |  | 20.7 | 61.5 | Active | 
11 | CC(=O)O[C@@H]1C[C@H](O)[C@@]23CO[C@H](OC(=O)CCc4ccccc4)[C@]1(C)[C@@H]2C[C@@H](O)[C@]1(C)[C@@H]3C(=O)[C@H](OC(C)=O)[C@@]2(C)C(c3ccoc3)C[C@H]3O[C@@]312 (single isomer, unassigned) | tde | 30.8 |  | 20.7 | 53.9 |  | Active
12 | CC(=O)O[C@@H]1C[C@H](O)[C@@]23CO[C@H](OC(=O)Cc4ccccc4)[C@]1(C)[C@@H]2C[C@@H](O)[C@]1(C)[C@@H]3C(=O)[C@H](OC(C)=O)[C@@]2(C)C(c3ccoc3)C[C@H]3O[C@@]312 (single isomer, unassigned) | tde | 26.9 |  | 24.1 | 42.3 |  | 
13 | CC(=O)O[C@@H]1C[C@H](O)[C@@]23CO[C@@H](O)[C@]1(C)[C@@H]2C[C@@H](O)[C@]1(C)[C@@H]3C(=O)[C@H](OC(C)=O)[C@@]2(C)[C@H](c3ccoc3)C[C@H]3O[C@]321 [TOOSENDANIN] | tde | 30.8 |  | 24.1 | 50 |  | 
